{"source": "patent US20030143247A1", "about": "“Antiviral compositions and methods for identification and use” (priority 2002, published 2003)", "origin": "cited, not measured here", "key": {"[1]": {"system": "HIV viral RNA region within the Rev-binding site", "details": "Zapp et al., Cell 74, 1993"}, "[2]": {"details": "human, in vivo"}, "HCV": {"system": "HCV", "details": "various clinical trials"}}}
{"compound": "NC[C@@H]1O[C@H](O[C@H]2[C@@H](O)[C@H](O[C@@H]3[C@@H](O)[C@H](N)C[C@H](N)[C@H]3O[C@H]3O[C@H](CN)[C@@H](O)[C@H](O)[C@H]3N)O[C@@H]2CO)[C@H](N)[C@@H](O)[C@@H]1O", "note": "[neomycin B]", "values": [{"measurement": "effect on Rev protein binding to HIV viral RNA", "setting": "[1]", "value": "blocks Rev protein binding"}]}
{"compound": "NC(=O)c1ncn([C@@H]2O[C@H](CO)[C@@H](O)[C@H]2O)n1", "note": "[ribavirin, 1-β-D-ribo-furanosyl-1,2,4-trizole-3-carboxamide]", "values": [{"measurement": "side effect", "setting": "[2]", "value": "can cause hemolytic anemia"}]}
{"compound": "IFN-α", "values": [{"measurement": "patients who initially responded to the therapy", "setting": "HCV; patients treated with IFN-α", "value": "approximately 40%"}, {"measurement": "initial responders who relapsed after the treatment ended", "setting": "HCV; share of the initial responders", "value": 70, "unit": "%"}]}
